From US10787446B2 (GENENTECH, INC., priority 2015, dated 2020)
Where a name gives a salt, the structure may show the parent alone.

Biological target: T1, hNav1.7 and the β1 subunit (Homo sapiens, UniProt Q15858)
T1 construct: expressed in transfected cells
Experiment: Tritiated compound competitive binding to membranes from cells heterologously expressing hNav1.7 and the β1 subunit (LBA)
Conditions: competition with 100 pM [3H]compound, 18 h, room temperature; IC50 by 4 parameter logistic model
Experimental: Example 235 Tritiated Compound Binding to Membranes Isolated from Cells that Heterologously Express hNav1.7 and the β1 Subunit
Preparation of membranes containing recombinantly expressed sodium channels: Frozen recombinant cell pellets were thawed on ice and diluted to 4 times the cell pellet weight with ice cold 50 mM Tris HCl, pH 7.4 buffer. The cell suspensions were homogenized on ice using a motorized glass dounce homogeniser. Homogenates were further diluted 8.4 times with ice cold 50 mM Tris HCl, pH 7.4 buffer and then centrifuged at 200×g at 4° C. for 15 min. The supernatants were collected and centrifuged at 10000×g at 4° C. for 50 min. The pellets were then re-suspended in 100 mM NaCl, 20 mM Tris HCl, pH 7.4 buffer containing 1% v/v protease inhibitors (Calbiochem) and re-homogenized on ice. The homogenized membranes were then processed through a syringe equipped with a 26 gauge needle. Protein concentrations were determined by Bradford Assay and the membranes were stored at −80° C.
Radioligand Binding Studies:
Saturation experiments. A competitive NaV1.7 inhibitor having a methyl group was tritiated. Three tritiums were incorporated in place of methyl hydrogens to generate [^3H]compound. Binding of this radioligand was performed in 5 mL borosilicate glass test tubes at room temperature. Binding was initiated by adding membranes to increasing concentrations of [^3H]compound in 100 mM NaCl, 20 mM Tris HCl, pH 7.4 buffer containing 0.01% w/v bovine serum albumin (BSA) for 18 h. […] After 18 h, the reactants were filtered through GF/C glass fiber filters presoaked in 0.5% w/v polyethylene imine. […] [^3H]compound bound to filters was quantified by liquid scintillation counting.
Competitive Binding Experiments:
Binding reactions were performed in 96-well polypropylene plates at room temperature for 18 h. In 360 μL, membranes were incubated with 100 pM [^3H]compound and increasing concentrations of Test Compound. […] Reactions were transferred and filtered through 96-well glass fiber/C filter plates presoaked with 0.5% polyethylene imine. The filtered reactions were washed 5 times with 200 μL ice cold buffer containing 0.25% BSA. Bound radioactivity was determined by liquid scintillation counting.
Data Analysis: For saturation experiments, non-specific binding was subtracted from total binding to provide specific binding and these values were recalculated in terms of pmol ligand bound per mg protein. Saturation curves were constructed and dissociation constants were calculated using the single site ligand binding model: Beq=(Bmax*X)/(X+Kd), where Beq is the amount of ligand bound at equilibrium, Bmax is the maximum receptor density, Kd is the dissociation constant for the ligand, and X is the free ligand concentration. For competition studies percent inhibition was determined and IC50 values were calculated using a 4 parameter logistic model (% inhibition=(A+((B−A)/(1+((x/C)^D)))) using XLfit, where A and B are the maximal and minimum inhibition respectively, C is the IC50 concentration and D is the (Hill) slope.

T1 sequence (Q15858 whole entry): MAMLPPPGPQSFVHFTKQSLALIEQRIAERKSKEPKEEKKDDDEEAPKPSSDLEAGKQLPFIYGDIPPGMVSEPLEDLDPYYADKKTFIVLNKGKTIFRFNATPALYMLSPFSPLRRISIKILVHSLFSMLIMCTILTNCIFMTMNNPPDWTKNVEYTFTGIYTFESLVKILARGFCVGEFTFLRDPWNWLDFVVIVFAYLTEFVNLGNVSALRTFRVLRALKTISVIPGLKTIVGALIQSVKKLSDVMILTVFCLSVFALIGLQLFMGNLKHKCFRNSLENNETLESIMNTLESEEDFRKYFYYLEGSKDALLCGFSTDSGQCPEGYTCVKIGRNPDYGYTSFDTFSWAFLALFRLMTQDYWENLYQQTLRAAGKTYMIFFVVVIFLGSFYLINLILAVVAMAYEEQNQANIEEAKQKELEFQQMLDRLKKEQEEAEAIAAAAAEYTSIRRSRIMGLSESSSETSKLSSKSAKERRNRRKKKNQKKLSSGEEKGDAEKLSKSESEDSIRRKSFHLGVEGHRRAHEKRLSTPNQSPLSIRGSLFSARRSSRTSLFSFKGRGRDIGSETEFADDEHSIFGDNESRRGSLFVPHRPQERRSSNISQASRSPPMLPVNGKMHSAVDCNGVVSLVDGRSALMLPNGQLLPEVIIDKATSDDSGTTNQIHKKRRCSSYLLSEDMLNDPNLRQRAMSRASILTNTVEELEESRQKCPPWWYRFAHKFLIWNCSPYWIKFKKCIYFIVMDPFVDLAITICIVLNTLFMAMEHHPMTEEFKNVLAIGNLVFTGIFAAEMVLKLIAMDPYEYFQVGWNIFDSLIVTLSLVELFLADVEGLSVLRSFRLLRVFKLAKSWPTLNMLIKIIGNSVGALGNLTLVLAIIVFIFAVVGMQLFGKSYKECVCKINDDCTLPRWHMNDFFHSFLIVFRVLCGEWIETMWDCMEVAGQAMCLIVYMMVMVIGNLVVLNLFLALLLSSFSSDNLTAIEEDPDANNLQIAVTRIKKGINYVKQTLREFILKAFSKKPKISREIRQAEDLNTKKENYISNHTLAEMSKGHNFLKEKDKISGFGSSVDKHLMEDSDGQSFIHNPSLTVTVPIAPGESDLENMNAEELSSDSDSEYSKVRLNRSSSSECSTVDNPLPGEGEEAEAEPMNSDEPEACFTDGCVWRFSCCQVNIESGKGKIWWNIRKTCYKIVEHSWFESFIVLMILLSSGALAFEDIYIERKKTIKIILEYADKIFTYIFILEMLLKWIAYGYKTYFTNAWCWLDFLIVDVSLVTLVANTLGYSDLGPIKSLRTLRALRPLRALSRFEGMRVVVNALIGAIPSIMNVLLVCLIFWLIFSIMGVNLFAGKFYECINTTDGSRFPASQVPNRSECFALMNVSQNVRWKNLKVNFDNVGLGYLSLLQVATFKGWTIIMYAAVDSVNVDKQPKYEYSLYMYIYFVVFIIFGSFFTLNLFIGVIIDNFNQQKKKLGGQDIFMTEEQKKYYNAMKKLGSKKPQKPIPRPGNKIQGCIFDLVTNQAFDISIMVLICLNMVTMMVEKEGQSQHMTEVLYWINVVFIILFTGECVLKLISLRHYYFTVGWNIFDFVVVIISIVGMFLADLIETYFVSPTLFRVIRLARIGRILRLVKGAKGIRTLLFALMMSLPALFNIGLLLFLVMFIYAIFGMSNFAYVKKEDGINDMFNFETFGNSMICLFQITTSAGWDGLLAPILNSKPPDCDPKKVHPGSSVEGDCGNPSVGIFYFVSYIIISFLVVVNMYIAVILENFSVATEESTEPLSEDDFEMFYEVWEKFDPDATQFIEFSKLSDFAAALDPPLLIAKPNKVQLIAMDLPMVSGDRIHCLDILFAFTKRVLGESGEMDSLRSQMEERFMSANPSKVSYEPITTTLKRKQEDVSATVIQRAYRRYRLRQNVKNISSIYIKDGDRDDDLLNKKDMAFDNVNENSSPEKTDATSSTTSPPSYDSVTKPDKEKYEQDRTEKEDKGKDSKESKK
T1 sequence (Q07699 19-218 partner): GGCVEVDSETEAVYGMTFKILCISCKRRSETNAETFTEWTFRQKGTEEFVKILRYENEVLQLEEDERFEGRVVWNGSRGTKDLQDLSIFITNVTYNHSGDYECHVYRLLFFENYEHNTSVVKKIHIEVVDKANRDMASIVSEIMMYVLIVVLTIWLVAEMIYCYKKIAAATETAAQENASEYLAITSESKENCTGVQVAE

SMILES	Nav1.7 (LBA)
C[C@@H](c1ccc(S(=O)(=O)Nc2ncns2)cc1Cl)N1CCCC[C@@H]1c1ccccc1 (single isomer, unassigned) [Example 59]	5.04 µM
O=S(=O)(Nc1ncns1)c1ccc2c(c1)OCC[C@@H]2N1CCc2ccccc2[C@H]1c1ccccc1 (single isomer, unassigned) [Example 80]	0.142 µM
O=S(=O)(Nc1ncns1)c1ccc2c(c1)OCC[C@H]2N1CCc2ccccc2[C@H]1c1ccccc1 (single isomer, unassigned) [Example 81]	0.435 µM
O=S(=O)(Nc1ncns1)c1ccc2c(c1)OCC[C@@H]2N1CCN(CC(F)(F)F)C[C@H]1c1ccccc1 (single isomer, unassigned) [Example 82]	0.0156 µM
O=S(=O)(Nc1ncns1)c1ccc2c(c1)OCC[C@H]2N1CCN(CC(F)(F)F)C[C@H]1c1ccccc1 (single isomer, unassigned) [Example 83]	0.0128 µM
O=S(=O)(Nc1nccs1)c1cc2c(cc1F)[C@@H](N1CCCC[C@H]1c1ccccc1)CCO2 (single isomer, unassigned) [Example 90]	0.00862 µM
O=S(=O)(Nc1nccs1)c1cc2c(cc1F)[C@H](N1CCCC[C@H]1c1ccccc1)CCO2 (single isomer, unassigned) [Example 91]	0.109 µM
O=S(=O)(Nc1nccs1)c1cc2c(cc1F)[C@@H](N1CC[C@@H](C(F)(F)F)C[C@H]1c1ccc(F)cc1)CCO2 (single isomer, unassigned) [Example 92]	0.000828 µM
O=S(=O)(Nc1ncccn1)c1cc2c(cc1F)[C@@H](N1CCCC[C@H]1c1ccccc1)CCO2 (single isomer, unassigned) [Example 94]	0.423 µM
O=S(=O)(Nc1ncccn1)c1cc2c(cc1F)[C@H](N1CCCC[C@H]1c1ccccc1)CCO2 (single isomer, unassigned) [Example 95]	1.54 µM
O=S(=O)(Nc1ncccn1)c1cc2c(cc1F)[C@@H](N1CC[C@@H](C(F)(F)F)C[C@H]1c1ccc(F)cc1)CCO2 (single isomer, unassigned) [Example 97]	0.0217 µM
O=S(=O)(Nc1cscn1)c1cc2c(cc1F)[C@H](N1CCCC[C@H]1c1ccccc1)CCO2 (single isomer, unassigned) [Example 98]	1.79 µM
O=S(=O)(Nc1cscn1)c1cc2c(cc1F)[C@@H](N1CCCC[C@H]1c1ccccc1)CCO2 (single isomer, unassigned) [Example 99]	0.091 µM
O=S(=O)(Nc1nccs1)c1ccc2c(c1)OCC[C@@H]2N1CCCC[C@@H]1c1ccc(F)cc1 (single isomer, unassigned) [Example 100]	0.0221 µM
O=S(=O)(Nc1nccs1)c1ccc2c(c1)OCC[C@@H]2N1CCCC[C@H]1c1ccc(F)cc1 (single isomer, unassigned) [Example 101]	0.022 µM
O=S(=O)(Nc1ncns1)c1cc(F)c(CN2CCC3(CC3)C[C@@H]2c2ccccc2)cc1F (single isomer, unassigned) [Example 109]	1.57 µM
O=S(=O)(Nc1ncns1)c1cc(F)c(CN2CC[C@@H](OC(F)(F)F)C[C@H]2c2ccccc2)cc1F (single isomer, unassigned) [Example 111]	0.0923 µM
O=S(=O)(Nc1ncns1)c1cc(F)c(CN2CC[C@H](O)C[C@@H]2c2ccccc2)cc1F (single isomer, unassigned) [Example 113]	8.59 µM
Cn1nccc1[C@@H]1C[C@H](C(F)(F)F)CCN1[C@H]1CCOc2cc(S(=O)(=O)Nc3ncns3)ccc21 (single isomer, unassigned) [Example 123]	0.000616 µM

Other lines, results leading:

Nav1.7 (LBA)	SMILES
0.482 µM	O=S(=O)(Nc1ncns1)c1ccc2c(c1)CCC[C@@H]2N1CCCC[C@@H]1c1ccccc1 (single isomer, unassigned) [Example 51]
0.269 µM	O=S(=O)(Nc1ncns1)c1ccc2c(c1)CCC[C@@H]2N1CCCC[C@H]1c1ccccc1 (single isomer, unassigned) [Example 52]
0.271 µM	O=S(=O)(Nc1ncns1)c1ccc2c(c1)CCC[C@H]2N1CCCC[C@H]1c1ccccc1 (single isomer, unassigned) [Example 53, trifluoroacetic acid salt]
0.411 µM	O=S(=O)(Nc1ncns1)c1ccc2c(c1)CCC[C@@H]2N1CCCC[C@H]1c1ccccc1 (single isomer, unassigned) [Example 54]
0.286 µM	O=S(=O)(Nc1ncns1)c1ccc2c(c1)CCC[C@H]2N1CCCC[C@@H]1c1ccccc1 (single isomer, unassigned) [Example 55]
1.25 µM	O=S(=O)(Nc1ncns1)c1ccc2c(c1)CCC[C@@H]2N1CCCC[C@@H]1c1ccccc1 (single isomer, unassigned) [Example 56]
0.33 µM	C[C@H](c1ccc(S(=O)(=O)Nc2ncns2)cc1Cl)N1CCCC[C@@H]1c1ccccc1 (single isomer, unassigned) [Example 60]
3.98 µM	C[C@H](c1ccc(S(=O)(=O)Nc2ncns2)cc1Cl)N1CCCC[C@H]1c1ccccc1 (single isomer, unassigned) [Example 61]
0.597 µM	O=S(=O)(Nc1ncns1)c1ccc2c(c1)CCC2N1CCCCC1c1ccccc1 (single isomer, unassigned) [Example 66, 1-(2-phenylpiperidin-1-yl)-N-(1,2,4-thiadiazol-5-yl)-2,3-dihydro-1H-indene-5-sulfonamide]
0.0179 µM	O=S(=O)(Nc1ncns1)c1ccc2c(c1)OCC[C@@H]2N1CCCC[C@H]1c1ccc(F)cc1 (single isomer, unassigned) [Example 76]
0.198 µM	O=S(=O)(Nc1ncns1)c1ccc2c(c1)OCC[C@H]2N1CCCC[C@H]1c1ccc(F)cc1 (single isomer, unassigned) [Example 77]
0.679 µM	O=S(=O)(Nc1ncns1)c1ccc2c(c1)OCC[C@@H]2N1CCCC[C@@H]1c1ccc(F)cc1 (single isomer, unassigned) [Example 78]
0.0186 µM	O=S(=O)(Nc1ncns1)c1ccc2c(c1)OCC[C@H]2N1CCCC[C@@H]1c1ccc(F)cc1 (single isomer, unassigned) [Example 79]
0.00991 µM	O=S(=O)(Nc1ncns1)c1cc2c(cc1F)[C@@H](N1CCCC[C@H]1c1ccccc1)CCO2 (single isomer, unassigned) [Example 84]
0.218 µM	O=S(=O)(Nc1ncns1)c1cc2c(cc1F)[C@H](N1CCCC[C@H]1c1ccccc1)CCO2 (single isomer, unassigned) [Example 85]
0.072 µM	O=S(=O)(Nc1nccs1)c1ccc2c(c1)OCC[C@@H]2N1CCCC[C@H]1c1ccccc1 (single isomer, unassigned) [Example 102]
0.90 µM	O=S(=O)(Nc1nccs1)c1ccc2c(c1)OCC[C@H]2N1CCCC[C@H]1c1ccccc1 (single isomer, unassigned) [Example 103]
0.0237 µM	O=S(=O)(Nc1ncns1)c1ccc2c(c1)OCC[C@@H]2N1CCCC[C@H]1c1cccnc1 (single isomer, unassigned) [Example 121]
0.0125 µM	O=S(=O)(Nc1ncns1)c1ccc2c(c1)OCC[C@H]2N1CCCC[C@H]1c1cccnc1 (single isomer, unassigned) [Example 122]
